# Measured values published in article PMC4428054, “A method for human teratogen detection by geometrically confined cell differentiation and migration” (Scientific Reports, 2015).
# “Also recorded” adds a separate entry of the source. Where two headings read alike, the source gives them in different places.
# Columns and labels:
# [1] = parameters: method as in earlier work; conditions: ref 30-34 (Table 1), Supplementary refs 1-5, cited from earlier work
# [2] = tested on: H9 human embryonic stem cells; assay: Cytotoxicity assay (MTS) in H9 cells; type: cell-based; conditions: for IC25H9: 25% inhibitory concentration, H9 cells, 3 days, MTS viability; for Cytotoxicity of tested concentration to hPSCs: Thalidomide 800 μM, Penicillin G 200 μg/ml
# Description: (§1) The dose-dependent effect of each compound on the mesoendoderm pattern formation was determined by dosing at four test conditions: zero, low, medium and high drug concentrations (Fig. 3i). The cytotoxicity of each compound was evaluated in order to find the appropriate range of testing concentrations. […] The results would represent specific cytotoxicity to embryonic and adult cells respectively. Based on the cytotoxicity data, three drug concentrations (designated as low, medium and high) were selected such that the lowest concentration tested was not toxic to both H9 cells and aHDFs, and the highest concentration should not be cytotoxic to aHDFs. The tested concentration was considered as not cytotoxic if it was less than the drug’s 25% inhibitory concentration (IC25) to the tested cell line[25].
# (§2) The cytotoxicity test was done in 96-well tissue culture plates with 100 μl of medium with or without the drug. For each drug, 8 concentrations with 5-fold dilution were tested together with the vehicle controls. For H9 cells, the plates were coated with Matrigel^TM before cell seeding. 10,000 hES cells or 1,000 aHDF cells were plated into each well and cultured for 3 days in the test solution with half change of the medium with or without the drug every day. On day 3, cell viability was measured using CellTiter 96® AQueous One Solution Cell Proliferation Assay (MTS, G3580, Promega). […] IC25 values were acquired from either logistic regression using OriginPro 9 or direct reading from the cytotoxicity curve.
# [3] = tested on: micropatterned human pluripotent stem cell (μP-hPSC) colonies; assay: μP-hPSC model-based quantitative morphometric assay (disruption of annular mesoendoderm pattern); type: cell-based; conditions: for DC value compared with known Cmax: DC in μP-hPSC model vs Cmax in human plasma; for Does DC < IC25H9?: comparison of DC with IC25 to H9 cells; for Morphologic cluster readouts across four test groups (one-way ANOVA, post-hoc): control, low, medium, high concentrations, day 3; for DC (disruption concentration): lowest concentration which morphologically disrupts the mesoendoderm pattern vs non-treated control, 3-day mesoendoderm induction; for Teratogenicity classification in the μP-hPSC model: teratogenic if DC < IC25,H9
# Description: as §1
# A series of imaging processing and statistical analysis were developed to quantitatively measure the teratogenic effects of each drug (Fig. 3). After three days of culture in the mesoendoderm induction medium, immunofluorescence images of T were acquired (Fig. 3ii). We employed similar image quantification algorithms previously used for analyzing collagen deposition patterns in fibrotic tissues[26] to extract 19 morphological attributes that describe the annular mesoendoderm pattern (Fig. 3iii). […] A dose response plot was then generated for each morphologic cluster (Fig. 3iv). One-way analysis of variance (ANOVA) was performed to determine whether there were significant morphologic differences among test groups for each drug (Fig. 3v).
# This concentration was defined as the disruption concentration (DC). If DC < IC25,H9, we can infer that the drug is teratogenic, where it affects embryonic development without being cytotoxic to embryonic cells.
# The readouts of each morphologic cluster across the four test groups (i.e. control, low, medium, high) were plotted for each drug and one-way ANOVA was performed to determine whether there were significant differences across the test groups (Supplementary Fig. S7–S11).
# The autoclaved PDMS stencil was first sealed onto a 60 mm petri dish (Nunc) using 200 μl of 70% ethanol. After drying in the cell culture hood, 450 μl Matrigel^TM in DMEM/F12 (11330032, GIBCO) was then added into each stencil and incubated for 5 hr at 37 °C before use. To obtain single cell suspension, the hPSC culture was treated with Accutase (SCR005, Merck Millipore) for about 10 min, and the cells were resuspended in mTeSR1 medium supplemented with 10 μM Y27632 (688000, Calbiochem, Merck Millipore). The cells were seeded onto the PDMS stencils at 100% confluence density of 4444 cells/mm^2 and allowed to attach for 1 hr. The stencil was then removed and the unpatterned substrate was passivated by backfilling with 0.5% Pluronic F-127 (P2443–1KG, Sigma-Aldrich) in DMEM/F12. After 10 min incubation, the μP-hPSC colonies were washed 3 times with DMEM/F12 and incubated at least for 3 hr in mTeSR^TM1 medium supplemented with 10 μM Y27632 before changed to mTeSR^TM1 medium alone. Differentiation was initiated 24 hr post seeding and lasted for 3 days before collecting the samples. For phase contrast live imaging, images were acquired every 20 min by BioStation CT (Nikon) using 10X objective. The imaging period started since the induction of differentiation and lasted for 3 days.
# Morphological feature extraction from T fluorescence images was done in MATLAB Image Processing Toolbox (Mathworks). First, the outline of the μP-hPSC colony was identified by intensity difference compared with background and its centroid position was determined.
# [4] = tested on: mouse embryonic stem cells (mESCs); conditions: disruption of beating cardiomyocyte formation from mESCs; cited from earlier work
# μP-hPSC colonies = assay: Quantitative RT-PCR of germ layer markers in drug-treated μP-hPSC colonies; type: cell-based, human; conditions: day 3; for Expression levels of MIXL1, GSC, NKX2.5, FOXA2, PAX6 and NESTIN / Expression level of mesoendoderm marker T compared to untreated control colonies / SOX17 expression level compared with untreated control colonies: Thalidomide 800 μM, Penicillin G 200 μg/ml; for Expression levels of MIXL1, GSC, NKX2.5, FOXA2, PAX6 and NESTIN: untreated control
# Description: Therefore, we reasoned that measuring changes in the mesoendoderm pattern, which is an assimilation of multiple cellular processes, as an assay readout for teratogenic potential, is sufficiently sensitive and may show better specificity as compared to the expression levels of a panel of molecular biomarkers for differentiation.
# Total RNA was extracted from the samples on day 3 of the differentiation using the RNeasy® Plus Micro Kit (74034, QIAGEN) according to manufacturer’s protocol. Then cDNA was synthesized from the extracted RNA using High Capacity RNA-to-cDNA Kit (4387406, Applied Biosystems, Life Technologies). To analyze the gene expression levels of each sample, quantitative RT-PCR was performed using FastStart Universal SYBR Green Master (ROX) (04913914001, Roche) on the ABI 7500 Fast Real-Time PCR system (Applied Biosystems, Life Technologies) according to the manufacturer’s standard protocol. The relative quantitative expressions values of target genes were normalized to GAPDH and expressed relative to the levels of undifferentiated hPSCs using the ΔΔCT method. All primers used were commercially validated primers from GeneCopoeia^TM except for MIXL1, GSC, E-cadherin, N-cadherin, VIM, TWIST and SNAIL. The primer sequences/Catalogue numbers can be found in Supplementary Information (Supplementary Table S3).
# [5] = tested on: adult human dermal fibroblasts (aHDFs); assay: Cytotoxicity assay (MTS) in adult human dermal fibroblasts; type: cell-based; conditions: Thalidomide 800 μM; Penicillin G 200 μg/ml
# Description: as §1
# as §2, with “10,000 hES cells or 1,000 aHDF cells were plated into each well and cultured for 3 days in the test solution with half change of the medium with or without the drug every day.” left out
# [6] = human plasma, therapeutic dosing, cited from earlier work
Structure (SMILES),In vivo human data (teratogenicity) [1],IC25H9 [2],DC value compared with known Cmax [3],Does DC < IC25H9? [3],"Morphologic cluster readouts across four test groups (one-way ANOVA, post-hoc) [3]",DC (disruption concentration) [3],Teratogenicity classification in the μP-hPSC model [3],In mEST (teratogenicity classification) [4],Cytotoxicity of tested concentration to hPSCs [2],"Expression levels of MIXL1, GSC, NKX2.5, FOXA2, PAX6 and NESTIN (μP-hPSC colonies)",Expression level of mesoendoderm marker T compared to untreated control colonies (μP-hPSC colonies),SOX17 expression level compared with untreated control colonies (μP-hPSC colonies),Cytotoxicity of tested concentration to human adult fibroblasts [5],further results
CC(C)(S)[C@@H](N)C(=O)O [D-penicillamine],Teratogenic[32],278 µg/mL,lower than or equal to,Yes,significant dose-dependent morphologic disruptions of the mesoendoderm pattern,200 µg/mL,Teratogenic,non-terotogenic; also recorded: Non-teratogenic,,,,,,In vivo human data (teratogenicity) ([1]; listed as D-Penicillamine): Teratogenic
CC1(C)S[C@@H]2[C@H](NC(=O)Cc3ccccc3)C(=O)N2[C@H]1C(=O)O [Penicillin G],,787 µg/mL,much higher,much higher and No,no significant differences among test groups in almost all morphologic clusters except CL6,,Non-teratogenic,,non-cytotoxic,no significant differences,higher expression level,no significant difference,non-cytotoxic,"Mesoendoderm pattern position (CL6) in high concentration test group ([3]; 1,000 μg/ml vs zero dose control, post-hoc p = 0.001): significant inward mesoenoderm pattern position toward the colony centre"
"CC1=C(/C=C/C(C)=C/C=C/C(C)=C/C(=O)O)C(C)(C)CCC1 [RA, Retinoic acid]",Teratogenic[31],>2 µg/mL,lower than or equal to,Yes,significant dose-dependent morphologic disruptions of the mesoendoderm pattern,0.00036 µg/mL,Teratogenic,Teratogenic,,,,,,In vivo human data (teratogenicity) ([1]; listed as Retinoic acid): Teratogenic; Cmax ([6]; ref Muindi et al. (1992)): 347 ng/mL
O=C1CCC(N2C(=O)c3ccccc3C2=O)C(=O)N1 (centres unmarked) [Thalidomide],Teratogenic[30],>1000 µM,,Yes,significant dose-dependent morphologic disruptions of the mesoendoderm pattern,30 µM,Teratogenic,cannot be detected,non-cytotoxic,no significant differences,higher expression level,no significant difference,non-cytotoxic,"Collective cell migration trajectory (live imaging and kymograph) ([3]; Thalidomide 800 μM, Penicillin G 200 μg/ml, 3-day live imaging, vs untreated colonies): migrated much more towards the colony center; Mesoendoderm pattern morphology (T+ cells) after 3 days ([3]; Thalidomide 800 μM, Penicillin G 200 μg/ml, vs untreated colonies): much wider mesoendoderm pattern that was displaced towards the colony center; Expression level of definitive endoderm marker SOX17 compared with Penicillin G-treated colonies (μP-hPSC colonies; Thalidomide 800 μM vs Penicillin G 200 μg/ml): significantly lower; Cmax ([6]; ref Teo et al. (2004), read-out: Cmax): 10.9 µM"
"CCCC(CCC)C(=O)O [VPA, Valproic acid]",Teratogenic,130 µM,lower than or equal to,Yes,significant dose-dependent morphologic disruptions of the mesoendoderm pattern,100 µM,,,,,,,,"Cmax ([6]; ref Reed et al. (2006), read-out: Cmax): 574 µM"
